From PMC4459825, “ATP Binding and Hydrolysis Properties of ABCB10 and Their Regulation by Glutathione” (PLoS ONE, 2015)

How the values were obtained:
[1] = target: T1, ABCB10 (ABCB10-V5) (Mus musculus, UniProt Q9JI39); assay: competition with 8-azido-ATP [γ] biotin photolabelling in SMPs, anti-V5 IP; settings: 50 μM 8-azido-ATP [γ] biotin, 3 mM MgCl2, pH 7.5, on ice; nucleotide binding domain, competitive
T1 construct: full-length cDNA in pEF1alpha-V5-His (V5-His tagged), overexpressed in HEK293; detected at approx. 65 kD; assayed in sub-mitochondrial particles, then anti-V5 immunoprecipitated
T1 sequence (Q9JI39 83-715): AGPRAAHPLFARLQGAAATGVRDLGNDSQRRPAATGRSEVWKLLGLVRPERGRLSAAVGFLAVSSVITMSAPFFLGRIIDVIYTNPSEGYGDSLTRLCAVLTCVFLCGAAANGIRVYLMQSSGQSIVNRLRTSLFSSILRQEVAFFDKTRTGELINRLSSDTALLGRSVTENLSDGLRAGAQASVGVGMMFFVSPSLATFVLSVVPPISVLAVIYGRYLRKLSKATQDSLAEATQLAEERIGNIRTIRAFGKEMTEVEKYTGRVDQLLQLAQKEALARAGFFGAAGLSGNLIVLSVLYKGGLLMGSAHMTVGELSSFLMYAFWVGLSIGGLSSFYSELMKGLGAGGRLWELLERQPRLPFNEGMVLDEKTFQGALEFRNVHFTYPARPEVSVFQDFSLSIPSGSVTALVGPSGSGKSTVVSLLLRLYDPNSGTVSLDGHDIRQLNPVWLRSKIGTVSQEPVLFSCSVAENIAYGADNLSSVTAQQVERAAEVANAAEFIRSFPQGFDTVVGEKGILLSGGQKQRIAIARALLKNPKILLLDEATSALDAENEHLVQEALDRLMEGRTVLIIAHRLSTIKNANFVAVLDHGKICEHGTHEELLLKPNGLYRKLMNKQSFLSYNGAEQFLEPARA

[2] = target: T1, ABCB10 (ABCB10-V5); assay: UV photolabelling of SMPs, anti-V5 IP, ExtrAvidin-HRP blot; settings: 3 mM MgCl2, pH 7.5, on ice; covalent after UV irradiation; labelled compound; net of binding and hydrolysis

Row | Molecule | competition with 8-azido-ATP [γ] biotin photolabelling in SMPs, anti-V5 IP [1] | Km [2] [µM]
1 | Nc1ncnc2c1ncn2[C@@H]1O[C@H](COP(=O)(O)OP(=O)(O)OP(=O)(O)O)[C@@H](O)[C@H]1O [ATP] | Increasing concentrations of unlabeled ATP decreased 8-azido-ATP [γ] biotin photolabeling | 
2 | Nc1ccn([C@@H]2O[C@H](COP(=O)(O)OP(=O)(O)OP(=O)(O)O)[C@@H](O)[C@H]2O)c(=O)n1 [CTP] | GTP, CTP and TTP could compete with ATP, but their effect was milder | 
3 | Cc1cn([C@H]2C[C@H](O)[C@@H](COP(=O)(O)OP(=O)(O)OP(=O)(O)O)O2)c(=O)[nH]c1=O [TTP] | GTP, CTP and TTP could compete with ATP, but their effect was milder | 
4 | 8-azido-ATP [γ] biotin |  | 128
5 | Nc1nc2c(ncn2[C@@H]2O[C@H](COP(=O)(O)OP(=O)(O)OP(=O)(O)O)[C@@H](O)[C@H]2O)c(=O)[nH]1 [GTP] | GTP, CTP and TTP could compete with ATP, but their effect was milder | 
